# US20070203079A1, “Methods of using small molecule compounds for neuroprotection” (priority 2005, published 2007)
# Counter-ions that a name gives are not always drawn.
# Tests used:
# Type in all cases: in vivo, C. elegans
# [1] = tested on: Pdat-1::GFP+Pdat-1::α-synuclein+Pdat-1:: torsinA (ΔE) worms; test: α-synuclein toxicity assay, mutant torsinA
# Source text: (§1) We have previously shown that torsinA can prevent dopamine (“DA”) neuron degeneration resulting from overexpression of α-synuclein in the DA neurons of C. elegans, while torsinA (“ΔE”) has a reduced neuroprotection (Cao et al., J Neurosci, 2005, 25(1): 3801-3812). Specifically, only 26.1±5.3% of the worms expressing Pdat-1::GFP+Pdat-1::α-synuclein maintained all 4 wildtype CEP DA neurons as 4 day adults while the percentages of the worms expressing Pdat-1::GFP+Pdat-1::α-synuclein+Pdat-1::torsinA and Pdat-1::GFP+Pdat-1::α-synuclein+Pdat-1:: torsinA (ΔE) are 57.3±1.6% and 42.2±7.3%, respectively (Cao et al., J Neurosci, 2005, 25(1): 3801-3812) (FIG. 8).
# (§2) All molecules are coded by Prestwick Library number. TorsinA-dependent compounds identified from the aggregation assay have torsinA-specific effects and, therefore, are likely to function in the same manner in the α-synuclein toxicity assay. All three α-synuclein transgenic lines were exposed to the five torsinA-dependent compounds to determine their torsinA-specificity (FIG. 9). As expected, none of these compounds had any effect in Pdat-1::GFP+Pdat-1::α-synuclein when torsinA expression is absent.
# [2] = tested on: Pdat-1::GFP+Pdat-1::α-synuclein+Pdat-1::torsinA worms; test: α-synuclein toxicity assay, wt torsinA
# Source text: as §1, §2
# [3] = tested on: Pdat-1::GFP+Pdat-1::torsinA worms (wt torsinA); test: 6-OHDA dopaminergic neurodegeneration in worms with wt torsinA
# Protocol: C. elegans nematodes were grown at 25° C. on NGM plates as described by Brenner (Brenner, Genetics, 1974, 77: 71-94). Two transgenic C. elegans lines were used for primary screens of the Prestwick small molecule library. A transgenic worm line expressing Pdat-1::GFP; with both wild type (Pdat-1::torsinA) or mutant (Pdat-1:::torsinA(ΔE)). Torsin-A expresses a phenotype that results in visible neurodegeneration after treatment with 6-OHDA. Transgenic worms were plated on drug plates and progeny were studied for morphological changes in the 8 dopaminergic neurons present in C. elegans.
# Drugs were administered to C. elegans according to a standard procedure (Rand and Johnson, Methods Cell Biol, 1995, 48: 187-204) by mixing the solubilized drug with the agar medium on which the worms are grown. […]
# Age-synchronized worms were obtained by treating gravid adults with 2% sodium hypochlorite and 0.5M NaOH to isolate embryos (Lewis Fleming, 1995). […] The worms were then washed and spread onto NGM plates seeded with bacteria (OP50) and scored at time points ranging from 2 to 72 h after 6-OHDA exposure.
# Immediately after 6-OHDA treatment, worms containing the transgenes were selected under a fluorescence dissecting microscope, based on the presence of GFP, and transferred to a fresh NGM plate seeded with OP50. […] For ease of analysis, only the four CEP DA neurons in the head of the worm were scored. […]
# [4] = tested on: worms expressing Punc-54::Q82::GFP+Punc-54::torsinA with wt torsinA only; test: Protein aggregate assay in worms with wt torsinA only
# Protocol: C elegans nematodes were grown at 20° C. on NGM plates as described by Brenner (Brenner, Genetics, 1974, 77: 71-94). Several transgenic C. elegans lines were used for primary screens of the Prestwick small molecule library. A transgenic worm line expressing Punc-54::Q82-GFP; with both wild type (“wt”) (Punc=54: :torsinA) or mutant (Punc-54::torsinA(ΔE)). Torsin-A expresses a phenotype that results in visible protein aggregation under fluorescent microscope. Transgenic worms were plated on drug plates and progeny were studied for a return to soluble protein.
# Drugs were administered to C. elegans according to a standard procedure (Rand and Johnson, Methods Cell Biol, 1995, 48: 187-204), by mixing the solubilized drug with the agar medium on which the worms are grown. This mode of administration allows the continuous exposure of worms to the drug.
# Each drug was first dissolved in an appropriate solvent, followed by adding the drug solution into pre-autoclaved media, with the volume of drug solution already taken into account. […]
# The screening assays used to identify the compounds use protein aggregation readouts to determine the specificities of molecular action. […]
# The methods for the aggregate analysis assay are described in Caldwell et al. (Hum Mol Genetics, 2003, 12(3): 307-319). […] MetaMorph Software (Universal Imaging Inc.) was used for pseudocoloration of images, image overlay, and aggregate size quantitation. For each worm line analyzed, average aggregate size was determined by capturing images of all aggregates in the posterior region of 30 L3-staged animals (for Q82::GFP aggregates) or all aggregates in 30 adult animals/day (for Q19::GFP analyses) at 1000× magnification. […]
# To see the effect of the candidate compounds on suppressing protein misfolding and aggregation, five gravid adult worms were placed onto each drug plate and grown at 20° C. for approximately 3 days. Thirty Fl worms at L3 stage and young adult stage were counted for aggregate number.
compound,measurement,setting,value
"C=N[C@@H](C(=O)N[C@@H]1C(=O)N2[C@@H]1SC(C)(C)[C@@H]2C(=O)O)c1ccccc1 [Compound 235, Metampicillin sodium salt]",enhanced DA neuron survival,[1],no significant neuroprotection
same,enhanced wild type DA neuron survival,[2],30.3±7%
same,neuroprotection against 6-OHDA insult,"[3]; listed as Metampicillin, sodium salt",provides neuroprotection
same,neuroprotection against 6-OHDA insult,[3]; listed as metampicillin sodium salt,only afforded in Pdat-1::GFP+Pdat-1::torsinA worms expressing wt torsinA
same,reduction of protein aggregation,[4],reduced protein aggregation
